In US10370371B2, “Substituted pyrimidine Bmi-1 inhibitors” (PTC Therapeutics, Inc., priority 2013, dated 2019):

system: Bmi-1 protein; experiment: Sandwich ELISA Assay (Bmi-1 protein level in HT-1080 cells); format: cell-based
Method: Cell Seeding and Compound Treatment (Day 1):
HT-1080 cells were seeded at 8000 cells/well (50 μL) in 96-well tissue culture plates. After the cells became adherent (3-4 hours), 2× diluted stocks of test compounds in 50 μL DMEM containing 1% DMSO (final DMSO concentration was 0.5%) were added and the plates were incubated at 37° C. under 5% CO2 for 40-48 hours.
ELISA Plate First Antibody Preparation (Day 2):
The First Antibody (Millipore Mouse, monoclonal to mouse Bmi-1, clone F6, catalog #05-637) diluted to 2 μg/mL in PBS was added (100 μL) to each well of a Nunc MaxiSorp 96-well ELISA plate. The plate was covered with a plate seal and allowed to stand overnight.
Cell Lysate Preparation (Day 3):
Fresh Lysis buffer (1×) was prepared on the day of the assay as follows: 1 mM EDTA, 150 mM NaCl, 0.5% Triton-X 100, 10 mM NaF, 20 mM B-Glycerophosphate, 1 mM DTT (in PBS, pH 7.2-7.4) and HALT protease inhibitor cocktail (1×) (Pierce #78410).
Lysis Buffer (1×, 40 μL) was added to each well and the plate was shaken for 5-10 minutes on an orbital shaker to allow cell lysis, then diluent (1% BSA in PBS in 0.5% NP40) (100 μL) was added to each well.
A standard curve was prepared at the following Bmi-1 concentrations: 8000, 4000, 2000, 1000, 500, 250, 125 and 0 pg/mL. The Bmi-1 Recombinant Protein Standard (Novus Biologicals PCGF4 Recombinant Protein (P01), catalog # H00000648-P01) used to prepare the standard curve was stored at −80° C. On first thaw, the Recombinant Protein Standard was diluted to 10 μg/μL in Blocking Buffer (1% BSA in PBS; BSA: Fisher Scientific Catalog #1600-100). Aliquots were taken and refrozen at −80° C. The aliquots may be kept at 4° C. and reused after first thaw, but only within 1-2 weeks. The Recombinant Protein Standard contains a GST-fusion tag that appears at approximately 70 Kda on Western Blot.
The prepared ELISA plate was washed 3× with Wash Buffer (0.05% Tween-20 in PBS). The final wash was removed from the plate and the plate was blotted dry. Blocking Buffer (300 μL) (1% BSA in PBS) was added to each well. The plate was covered with a plate seal and incubated at room temperature for 1 hour. The blocked plate was washed 3× with Wash Buffer, then the final wash was removed and the plate was blotted dry. The previously prepared samples and standards were added (100 μL/well) and the plate was covered with a plate seal and incubated at 4° C. overnight.
The prepared ELISA plate was removed from incubation and allowed to stand at room temperature for 30 minutes, then washed and blotted dry. The Second Antibody (Cell Signaling Rabbit anti-Bmi-1, Cat#2830) diluted to 1:600 in Blocking Buffer was added (100 μL) to each well, except as needed for background control wells. The plate was covered with a plate seal and incubated for 1.5 hrs at room temperature.
The ELISA plate was washed and blotted dry as previously described. The Third Antibody (Cell Signaling HRP conjugated anti-rabbit IgG (CellSignaling, Cat#:7074) diluted to 1:300 in Blocking Buffer was added (100 μL) to each well, except as needed for background control wells. The plate was incubated for 1 hr at room temperature.
The plate was washed and blotted dry, then a previously prepared TMB substrate (TMB substrate kit, Pierce catalog #34021) (prepared by mixing kit reagents 1:1) (100 μL) was added per well. The plate was incubated for 20-30 minutes at room temperature in the dark, then Stop Solution (2 M sulfuric acid in water) (50 μL) was added per well. The plates were read at OD450 (experimental) and OD570 (reference).

Row | Compound | EC50 [nM]
1 | Cc1nc2ccccc2n1-c1cc(Cl)nc(Nc2ccc(C(F)(F)F)cc2)n1 [Cpd 6, 4-chloro-6-(2-methyl-1H-benzimidazol-1-yl)-N-[4-(trifluoromethyl)phenyl]pyrimidin-2-amine] | 100 to 3000
2 | Cc1nc2ccccc2n1-c1cc(Cl)nc(Nc2ccc(C(F)(F)F)c(F)c2)n1 [Cpd 8, 4-chloro-N-[3-fluoro-4-(trifluoromethyl)phenyl]-6-(2-methyl-1H-benzimidazol-1-yl)pyrimidin-2-amine] | 100 to 3000
3 | Cc1nc2ccccc2n1-c1cc(N)nc(Nc2ccc(C(F)(F)F)c(F)c2)n1 [Cpd 13, N^2-[3-fluoro-4-(trifluoromethyl)phenyl]-6-(2-methyl-1H-benzimidazol-1-yl)pyrimidine-2,4-diamine] | 100 to 3000
4 | Cc1nc2ccccc2n1-c1cc(NCCO)nc(Nc2ccc(C(F)(F)F)cc2)n1 [Cpd 15, 2-{[6-(2-methyl-1H-benzimidazol-1-yl)-2-{[4-(trifluoromethyl)phenyl]amino}pyrimidin-4-yl]amino}ethanol] | 100 to 3000
5 | Cc1nc2ccccc2n1-c1cc(NCCO)nc(Nc2ccc(C(F)(F)F)c(F)c2)n1 [Cpd 16, 2-{[2-{[3-fluoro-4-(trifluoromethyl)phenyl]amino}-6-(2-methyl-1H-benzimidazol-1-yl)pyrimidin-4-yl]amino}ethanol] | 100 to 3000
6 | Cc1nc2ccccc2n1-c1cc(NCCO)nc(Nc2ccc(OC(F)F)c(F)c2)n1 [Cpd 17, 2-{[2-{[4-(difluoromethoxy)-3-fluorophenyl]amino}-6-(2-methyl-1H-benzimidazol-1-yl)pyrimidin-4-yl]amino}ethanol] | 100 to 3000
7 | Cc1nc2cc(F)c(F)cc2n1-c1cc(Cl)nc(Nc2ccc(C(F)(F)F)cc2)n1 [Cpd 18, 4-chloro-6-(5,6-difluoro-2-methyl-1H-benzimidazol-1-yl)-N-[4-(trifluoromethyl)phenyl]pyrimidin-2-amine] | 100 to 3000
8 | Cc1nc2cc(F)c(F)cc2n1-c1cc(Cl)nc(Nc2ccc(C(F)(F)F)c(F)c2)n1 [Cpd 19, 4-chloro-6-(5,6-difluoro-2-methyl-1H-benzimidazol-1-yl)-N-[3-fluoro-4-(trifluoromethyl)phenyl]pyrimidin-2-amine] | 100 to 3000
9 | Cc1nc2cc(F)c(F)cc2n1-c1cc(NCCO)nc(Nc2ccc(C(F)(F)F)cc2)n1 [Cpd 21, 2-{[6-(5,6-difluoro-2-methyl-1H-benzimidazol-1-yl)-2-{[4-(trifluoromethyl)phenyl]amino}pyrimidin-4-yl]amino}ethanol] | 100 to 3000
10 | Cc1nc2cc(F)c(F)cc2n1-c1cc(N)nc(Nc2ccc(C(F)(F)F)c(F)c2)n1 [Cpd 24, 6-(5,6-difluoro-2-methyl-1H-benzimidazol-1-yl)-N^2-[3-fluoro-4-(trifluoromethyl)phenyl]pyrimidine-2,4-diamine] | 100 to 3000
11 | Nc1cc(-c2ccnc3ccccc23)nc(Nc2ccc(C(F)(F)F)cc2)n1 [Cpd 25, 6-(quinolin-4-yl)-N^2-[4-(trifluoromethyl)phenyl]pyrimidine-2,4-diamine] | 100 to 3000
12 | Nc1cc(-n2c(C3CC3)nc3ccc(F)cc32)nc(Nc2ccc(C(F)(F)F)cc2)n1 [Cpd 27, 6-(2-cyclopropyl-6-fluoro-1H-benzimidazol-1-yl)-N^2-[4-(trifluoromethyl)phenyl]pyrimidine-2,4-diamine] | 10 to 100
13 | Nc1cc(-c2c(CO)nc3ccc(F)cn23)nc(Nc2ccc(C(F)(F)F)cc2)n1 [Cpd 29, [3-(6-amino-2-{[4-(trifluoromethyl)phenyl]amino}pyrimidin-4-yl)-6-fluoroimidazo[1,2-a]pyridin-2-yl]methanol] | 10 to 100
14 | Cc1nc2ccccc2n1-c1cc(Cl)nc(Nc2ccc(OC(F)F)c(F)c2)n1 [Cpd 30, 4-chloro-N-[4-(difluoromethoxy)-3-fluorophenyl]-6-(2-methyl-1H-benzimidazol-1-yl)pyrimidin-2-amine] | 100 to 3000
15 | CCc1nc2ncc(Cl)cc2n1-c1cc(N)nc(Nc2ccc(C(F)(F)F)cc2)n1 [Cpd 32, 6-(6-chloro-2-ethyl-1H-imidazo[4,5-b]pyridin-1-yl)-N^2-[4-(trifluoromethyl)phenyl]pyrimidine-2,4-diamine] | 10 to 100
16 | Cc1nc2c(F)cc(F)cc2n1-c1cc(N)nc(Nc2ccc(C(F)(F)F)cc2)n1 [Cpd 34, 6-(4,6-difluoro-2-methyl-1H-benzimidazol-1-yl)-N^2-[4-(trifluoromethyl)phenyl]pyrimidine-2,4-diamine] | 10 to 100

Continued, values first:

Row | EC50 [nM] | Compound
17 | 1 to 10 | Cc1nc2ccc(F)cn2c1-c1cc(N)nc(Nc2ccc(C(F)(F)F)cc2)n1 [Cpd 1, 6-(6-fluoro-2-methylimidazo[1,2-a]pyridin-3-yl)-N^2-[4-(trifluoromethyl)phenyl]pyrimidine-2,4-diamine]
18 | 1 to 10 | Cc1nn(C)c(C)c1-c1cc(N)nc(Nc2ccc(C(F)(F)F)cc2)n1 [Cpd 3, N^2-[4-(trifluoromethyl)phenyl]-6-(1,3,5-trimethyl-1H-pyrazol-4-yl)pyrimidine-2,4-diamine]
19 | 10 to 100 | Cc1nc2ccc(F)cc2n1-c1cc(N)nc(Nc2ccc(C(F)(F)F)cc2)n1 [Cpd 4, 6-(6-fluoro-2-methyl-1H-benzimidazol-1-yl)-N^2-[4-(trifluoromethyl)phenyl]pyrimidine-2,4-diamine]
20 | 10 to 100 | Cc1nc2ccccc2n1-c1cc(N)nc(Nc2ccc(C(F)(F)F)cc2)n1 [Cpd 7, 6-(2-methyl-1H-benzimidazol-1-yl)-N^2-[4-(trifluoromethyl)phenyl]pyrimidine-2,4-diamine]
21 | 1 to 10 | Nc1cc(-c2c(C3CC3)nc3ccc(F)cn23)nc(Nc2ccc(OC(F)F)c(F)c2)n1 [Cpd 9, 6-(2-cyclopropyl-6-fluoroimidazo[1,2-a]pyridin-3-yl)-N^2-[4-(difluoromethoxy)-3-fluorophenyl]pyrimidine-2,4-diamine]
22 | 10 to 100 | Cc1nc2ccc(F)cc2n1-c1cc(N)nc(Nc2ccc(OC(F)F)c(F)c2)n1 [Cpd 10, N^2-[4-(difluoromethoxy)-3-fluorophenyl]-6-(6-fluoro-2-methyl-1H-benzimidazol-1-yl)pyrimidine-2,4-diamine]
23 | 10 to 100 | Cc1nc2ccccc2n1-c1cc(N)nc(Nc2ccc(OC(F)F)c(F)c2)n1 [Cpd 14, N^2-[4-(difluoromethoxy)-3-fluorophenyl]-6-(2-methyl-1H-benzimidazol-1-yl)pyrimidine-2,4-diamine]
24 | 10 to 100 | Cc1nc2cc(F)c(F)cc2n1-c1cc(N)nc(Nc2ccc(C(F)(F)F)cc2)n1 [Cpd 20, 6-(5,6-difluoro-2-methyl-1H-benzimidazol-1-yl)-N^2-[4-(trifluoromethyl)phenyl]pyrimidine-2,4-diamine]
25 | 10 to 100 | Cc1nc2ccccc2n1-c1cc(NO)nc(Nc2ccc(C(F)(F)F)cc2)n1 [Cpd 22, N^4-hydroxy-6-(2-methyl-1H-benzimidazol-1-yl)-N^2-[4-(trifluoromethyl)phenyl]pyrimidine-2,4-diamine]
26 | 10 to 100 | CCc1nc2ccccc2n1-c1cc(N)nc(Nc2ccc(C(F)(F)F)cc2)n1 [Cpd 23, 6-(2-ethyl-1H-benzimidazol-1-yl)-N^2-[4-(trifluoromethyl)phenyl]pyrimidine-2,4-diamine]
27 | 10 to 100 | CCc1nc2ccc(F)cc2n1-c1cc(N)nc(Nc2ccc(C(F)(F)F)cc2)n1 [Cpd 26, 6-(2-ethyl-6-fluoro-1H-benzimidazol-1-yl)-N^2-[4-(trifluoromethyl)phenyl]pyrimidine-2,4-diamine]
28 | 1 to 10 | Nc1cc(-c2c(CO)nc3ccccn23)nc(Nc2ccc(C(F)(F)F)cc2)n1 [Cpd 28, [3-(6-amino-2-{[4-(trifluoromethyl)phenyl]amino}pyrimidin-4-yl)imidazo[1,2-a]pyridin-2-yl]methanol]
29 | 1 to 10 | Cc1nc2ncc(Cl)cc2n1-c1cc(N)nc(Nc2ccc(C(F)(F)F)cc2)n1 [Cpd 31, 6-(6-chloro-2-methyl-1H-imidazo[4,5-b]pyridin-1-yl)-N^2-[4-(trifluoromethyl)phenyl]pyrimidine-2,4-diamine]
